Here are results for 14 compounds from US10059713B2 (Takeda Pharmaceutical Company Limited, priority 2014, dated 2018).

One may read the EC50 as the concentration giving half of the maximal effect.

Chain of human GPR43 (O15552 whole entry): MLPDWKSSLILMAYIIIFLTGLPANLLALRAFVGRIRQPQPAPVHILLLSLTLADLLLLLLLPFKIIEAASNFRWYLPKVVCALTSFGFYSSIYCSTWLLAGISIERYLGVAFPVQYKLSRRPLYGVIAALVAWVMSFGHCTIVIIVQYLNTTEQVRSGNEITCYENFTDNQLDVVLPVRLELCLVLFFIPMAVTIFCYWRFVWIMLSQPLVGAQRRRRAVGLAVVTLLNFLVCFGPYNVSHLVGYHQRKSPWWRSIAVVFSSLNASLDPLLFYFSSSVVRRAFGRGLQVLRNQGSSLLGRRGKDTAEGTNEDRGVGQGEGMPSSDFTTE

The test concerns the target human GPR43 (Homo sapiens (Human), UniProt O15552). Briefly: Ca-Flux functional assay: determination of agonist/positive allosteric modulator (PAM) activity. Conditions: CHO-K1 Gα16 cells stably expressing human GPR43; compound added with EC20 sodium acetate; intracellular Ca2+ by FLIPR; does not distinguish agonist from PAM. The format is cell-based. The gist of the method:
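Agonist or PAM activity read as intracellular Ca2+ rise by FLIPR after adding compound plus EC20 acetate, acetate EC20 set from a prior curve. Cells: CHO-K1 Gα16 with stable human GPR43. EC50 from ten-point half-log curves starting 10 μM.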
For the compound `Nc1[nH]c2c(OCC3CC(F)(F)C3)ncnc2c1S(=O)(=O)c1ccccc1` [Example 171, 7-(benzenesulfonyl)-4-[(3,3-difluorocyclobutyl)methoxy]-5H-pyrrolo[3,2-d]pyrimidin-6-amine], the EC50 was determined as 134 nM.
In turn, `Nc1[nH]c2c(N3CCCC(n4cccn4)C3)ncnc2c1S(=O)(=O)c1ccccc1` (centres unmarked) [Example 114, 7-(benzenesulfonyl)-4-[3-(1H-pyrazol-1-yl)piperidin-1-yl]-5H-pyrrolo[3,2-d]pyrimidin-6-amine] showed an EC50 of 1110 nM.
As for `Cc1nc(N2C[C@@H](C)O[C@@H](C)C2)c2[nH]c(N)c(S(=O)(=O)c3ccccc3F)c2n1` [Example 187, 4-[(2R,6S)-2,6-dimethylmorpholin-4-yl]-7-(2-fluorobenzenesulfonyl)-2-methyl-5H-pyrrolo[3,2-d]pyrimidin-6-amine], the figure is 5 nM; as for `CN(Cc1cccc(Cl)c1)c1ncnc2c(S(=O)(=O)c3ccccc3)c(N)[nH]c12` [Example 90, 7-(benzenesulfonyl)-4-N-[(3-chlorophenyl)methyl]-4-N-methyl-5H-pyrrolo[3,2-d]pyrimidine-4,6-diamine], 41 nM; as for `CCC1(CC)CN(c2ncnc3c(S(=O)(=O)c4ccccc4)c(N)[nH]c23)CCO1` [Example 103, 7-(benzenesulfonyl)-4-(2,2-diethylmorpholin-4-yl)-5H-pyrrolo[3,2-d]pyrimidin-6-amine], 36 nM.
As for `Cc1nc(N2CCO[C@H](C)[C@@H]2C)c2[nH]c(N)c(S(=O)(=O)c3ccccc3F)c2n1` (racemic) [Example 275, 4-[(RS,SR)-2,3-dimethylmorpholin-4-yl]-7-(2-fluorobenzenesulfonyl)-2-methyl-5H-pyrrolo[3,2-d]pyrimidin-6-amine], the figure is 5 nM; as for `CC1CN(c2ncnc3c(S(=O)(=O)c4ccc(C(F)(F)F)cc4)c(N)[nH]c23)CCO1` (centres unmarked) [Example 136, 4-(2-methylmorpholin-4-yl)-7-[4-(trifluoromethyl)benzenesulfonyl]-5H-pyrrolo[3,2-d]pyrimidin-6-amine], 118 nM.
The compound `Cc1nc(N2CCO[C@@H](C)C2)c2[nH]c(N)c(S(=O)(=O)c3ccccc3)c2n1` [Example 226, 7-(benzenesulfonyl)-2-methyl-4-[(2S)-2-methylmorpholin-4-yl]-5H-pyrrolo[3,2-d]pyrimidin-6-amine] registered an EC50 of 13 nM.
As for `Cc1nc(OCC2CC2)c2[nH]c(N)c(S(=O)(=O)c3cccc(F)c3)c2n1` [Example 194, 4-(cyclopropylmethoxy)-7-(3-fluorobenzenesulfonyl)-2-methyl-5H-pyrrolo[3,2-d]pyrimidin-6-amine], the figure is 475 nM; as for `Nc1[nH]c2c(N3CCCC4(COC4)C3)ncnc2c1S(=O)(=O)c1ccccc1` [Example 150, 7-(benzenesulfonyl)-4-{2-oxa-6-azaspiro[3.5]nonan-6-yl}-5H-pyrrolo[3,2-d]pyrimidin-6-amine], 933 nM; as for `Nc1[nH]c2c(N3CCC(F)(F)CC3)ccnc2c1S(=O)(=O)c1ccccc1` [Example 219, 3-(benzenesulfonyl)-7-(4,4-difluoropiperidin-1-yl)-1H-pyrrolo[3,2-b]pyridin-2-amine], 18 nM.
The result for `Cc1nc(N2CCOC(C)C2)c2[nH]c(N)c(S(=O)(=O)c3ccccc3F)c2n1` (centres unmarked) [Example 176, 7-(2-fluorobenzenesulfonyl)-2-methyl-4-(2-methylmorpholin-4-yl)-5H-pyrrolo[3,2-d]pyrimidin-6-amine] reads 8 nM.
As for `Cc1nc(OCC(C)C)c2[nH]c(N)c(S(=O)(=O)c3ccccc3)c2n1` [Example 251, 7-(benzenesulfonyl)-2-methyl-4-(2-methylpropoxy)-5H-pyrrolo[3,2-d]pyrimidin-6-amine], the figure is 49 nM; as for `C=C(C)c1cncc2c(S(=O)(=O)c3ccccc3)c(N)[nH]c12` [Example 100, 3-(benzenesulfonyl)-7-(prop-1-en-2-yl)-1H-pyrrolo[3,2-c]pyridin-2-amine], 145 nM.
